Target: T1, human mAChR M4 (Homo sapiens, UniProt P08173)
T1 construct: expressed in transfected cells; host or cells: CHO-K1 (ATCC), stably co-expressing chimeric G protein Gqi5
T1 sequence (P08173 1-479): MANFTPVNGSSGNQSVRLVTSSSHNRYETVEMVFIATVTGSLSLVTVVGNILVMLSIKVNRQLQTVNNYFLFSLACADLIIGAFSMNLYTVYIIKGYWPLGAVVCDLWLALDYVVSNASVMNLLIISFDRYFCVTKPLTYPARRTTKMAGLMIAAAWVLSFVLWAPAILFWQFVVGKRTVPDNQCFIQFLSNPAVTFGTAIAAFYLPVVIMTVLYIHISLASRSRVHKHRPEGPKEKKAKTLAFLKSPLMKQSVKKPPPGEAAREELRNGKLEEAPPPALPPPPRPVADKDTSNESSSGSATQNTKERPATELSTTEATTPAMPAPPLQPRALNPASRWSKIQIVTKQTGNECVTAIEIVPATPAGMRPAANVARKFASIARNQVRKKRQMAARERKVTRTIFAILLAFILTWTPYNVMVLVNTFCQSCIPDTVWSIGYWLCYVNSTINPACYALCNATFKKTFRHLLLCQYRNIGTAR
Test: mAChR M4 cell-based functional assay (calcium mobilization, EC80 acetylcholine), human M4
Details: Table 9; for Emin: human M4, % ACh maximum at 30 μM
Procedure: Human or rat M4 cDNA, along with the chimeric G protein Gqi5, were transfected into Chinese hamster ovary (CHO-K1) cells purchased from the American Type Culture Collection using Lipofectamine2000. M4/Gqi5/CHO cells were grown in Ham's F-12 medium containing 10% heat-inactivated fetal bovine serum (FBS), 20 mM HEPES, 500 μg/mL G418 sulfate, and 200 μg/mL Hygromycin B.
For high throughput measurement of agonist-evoked increases in intracellular calcium, CHO-K1 cells stably expressing muscarinic receptors were plated in growth medium lacking G418 and hygromycin at 15,000 cells/20 μL/well in Greiner 384-well black-walled, tissue culture (TC)-treated, clear-bottom plates (VWR). Cells were incubated overnight at 37° C. and 5% CO2. […] Compound master plates were formatted in a 10 point concentration-response curve (CRC) format (1:3 dilutions) in 100% DMSO with a starting concentration of 10 or 1 mM using a BRAVO liquid handler (Agilent). Test compound CRCs were then transferred to daughter plates (240 nL) using the Echo acoustic plate reformatter (Labcyte, Sunnyvale, CA) and then diluted into assay buffer (40 μL) to a 2× stock using a Thermo Fisher Combi (Thermo Fisher Scientific, Waltham, MA).
Calcium flux was measured using the Functional Drug Screening System (FDSS) 6000 or 7000 (Hamamatsu Corporation, Tokyo, Japan) as an increase in the fluorescent static ratio. Compounds were applied to cells (20 μL, 2×) using the automated system of the FDSS at 2 seconds into the protocol and the data were collected at 1 Hz. […] Agonist activity was analyzed as a concentration-dependent increase in calcium mobilization upon compound addition. Positive allosteric modulator activity was analyzed as a concentration-dependent increase in the EC20 acetylcholine response. Antagonist activity was analyzed as a concentration-dependent decrease in the EC80 acetylcholine response; for the purposes of the tables herein, an IC50 (inhibitory concentration 50) was calculated as a concentration-dependent decrease of the response elicited by an EC80 concentration of acetylcholine. Concentration-response curves were generated using a four-parameter logistical equation in XLFit curve fitting software (IDBS, Bridgewater, NJ) for Excel (Microsoft, Redmond, WA) or Prism (GraphPad Software, Inc., San Diego, CA) or the Dotmatics software platform (Dotmatics, Bishop's Stortford, UK).

[1] = M4/Gqi5/CHO-K1 cells, decrease of EC80 acetylcholine response

Compound	IC50 [1] [µM]	Emin [%]	IC50 (μM) [µM]
Cc1nn(C)cc1-c1ccc(O[C@@H]2C[C@@H]3CN(CC4CC5C=CC4C5)C[C@@H]3C2)nn1 (stereo partly drawn) [Compound 47, (3aR,5r,6aS)-2-(5-bicyclo[2.2.1]hept-2-enylmethyl)-5-[6-(1,3-dimethylpyrazol-4-yl)pyridazin-3-yl]oxy-3,3a,4,5,6,6a-hexahydro-1H-cyclopenta[c]pyrrole]	0.0945	3.08	–
Cc1nn(C)cc1-c1ccc(O[C@@H]2C[C@@H]3CN(CCC(C)(C)C)C[C@@H]3C2)nn1 [Compound 48, (3aR,5r,6aS)-2-(3,3-dimethylbutyl)-5-[6-(1,3-dimethylpyrazol-4-yl)pyridazin-3-yl]oxy-3,3a,4,5,6,6a-hexahydro-1H-cyclopenta[c]pyrrole]	0.361	3.79	–
Cc1nn(C)cc1-c1ccc(O[C@@H]2C[C@@H]3CN(CC4CCCCC4)C[C@@H]3C2)nn1 [Compound 49, (3aR,5r,6aS)-2-(cyclohexylmethyl)-5-[6-(1,3-dimethylpyrazol-4-yl)pyridazin-3-yl]oxy-3,3a,4,5,6,6a-hexahydro-1H-cyclopenta[c]pyrrole]	0.272	3.17	–
Cc1nn(C)cc1-c1ccc(O[C@@H]2C[C@@H]3CN(CC4CCOCC4)C[C@@H]3C2)nn1 [Compound 50, (3aR,5r,6aS)-5-[6-(1,3-dimethylpyrazol-4-yl)pyridazin-3-yl]oxy-2-(tetrahydropyran-4-ylmethyl)-3,3a,4,5,6,6a-hexahydro-1H-cyclopenta[c]pyrrole]	6.03	15.6	–
Cc1nn(C)cc1-c1ccc(O[C@@H]2C[C@@H]3CN(CC4CCCOC4)C[C@@H]3C2)nn1 (stereo partly drawn) [Compound 51, (3aR,5r,6aS)-5-[6-(1,3-dimethylpyrazol-4-yl)pyridazin-3-yl]oxy-2-(tetrahydropyran-3-ylmethyl)-3,3a,4,5,6,6a-hexahydro-1H-cyclopenta[c]pyrrole]	7.85	19.8	–
Cc1cccnc1CN1C[C@H]2C[C@@H](Oc3ccc(-c4cn(C)nc4C)nn3)C[C@H]2C1 [Compound 52, (3aR,5r,6aS)-5-[6-(1,3-dimethylpyrazol-4-yl)pyridazin-3-yl]oxy-2-[(3-methyl-2-pyridyl)methyl]-3,3a,4,5,6,6a-hexahydro-1H-cyclopenta[c]pyrrole]	–	26.4	> 10
Fc1ccc(Cl)c(-c2ccc(O[C@@H]3C[C@@H]4CN(CC5CC6C=CC5C6)C[C@@H]4C3)nn2)c1 (stereo partly drawn) [Compound 53, (3aR,5r,6aS)-2-(5-bicyclo[2.2.1]hept-2-enylmethyl)-5-[6-(2-chloro-5-fluoro-phenyl)pyridazin-3-yl]oxy-3,3a,4,5,6,6a-hexahydro-1H-cyclopenta[c]pyrrole]	0.1	3.21	–
CC(C)(C)CCN1C[C@H]2C[C@@H](Oc3ccc(-c4cc(F)ccc4Cl)nn3)C[C@H]2C1 [Compound 54, (3aR,5r,6aS)-5-[6-(2-chloro-5-fluoro-phenyl)pyridazin-3-yl]oxy-2-(3,3-dimethylbutyl)-3,3a,4,5,6,6a-hexahydro-1H-cyclopenta[c]pyrrole]	0.222	3.07	–
CC(CN1C[C@H]2C[C@@H](Oc3ccc(-c4cc(F)ccc4Cl)nn3)C[C@H]2C1)C(C)(C)C (stereo partly drawn) [Compound 55, (3aR,5r,6aS)-5-[6-(2-chloro-5-fluoro-phenyl)pyridazin-3-yl]oxy-2-(2,3,3-trimethylbutyl)-3,3a,4,5,6,6a-hexahydro-1H-cyclopenta[c]pyrrole]	0.43	3.60	–
Fc1ccc(Cl)c(-c2ccc(O[C@@H]3C[C@@H]4CN(CC5CCCCC5)C[C@@H]4C3)nn2)c1 [Compound 56, (3aR,5r,6aS)-5-[6-(2-chloro-5-fluoro-phenyl)pyridazin-3-yl]oxy-2-(cyclohexylmethyl)-3,3a,4,5,6,6a-hexahydro-1H-cyclopenta[c]pyrrole]	0.154	3.63	–
Fc1ccc(Cl)c(-c2ccc(O[C@@H]3C[C@@H]4CN(CC5CCCOC5)C[C@@H]4C3)nn2)c1 (stereo partly drawn) [Compound 57, (3aR,5r,6aS)-5-[6-(2-chloro-5-fluoro-phenyl)pyridazin-3-yl]oxy-2-(tetrahydropyran-3-ylmethyl)-3,3a,4,5,6,6a-hexahydro-1H-cyclopenta[c]pyrrole]	3.07	6.99	–
Cc1cccnc1CN1C[C@H]2C[C@@H](Oc3ccc(-c4cc(F)ccc4Cl)nn3)C[C@H]2C1 [Compound 58, (3aR,5r,6aS)-5-[6-(2-chloro-5-fluoro-phenyl)pyridazin-3-yl]oxy-2-[(3-methyl-2-pyridyl)methyl]-3,3a,4,5,6,6a-hexahydro-1H-cyclopenta[c]pyrrole]	1.46	6.11	–
Fc1ccc(Cl)c(-c2ccc(O[C@@H]3C[C@@H]4CN(CC5CCOCC5)C[C@@H]4C3)nn2)c1 [Compound 59, (3aR,5r,6aS)-5-[6-(2-chloro-5-fluoro-phenyl)pyridazin-3-yl]oxy-2-(tetrahydropyran-4-ylmethyl)-3,3a,4,5,6,6a-hexahydro-1H-cyclopenta[c]pyrrole]	–	20.7	> 10
Cc1cnn(C)c1-c1ccc(NC[C@H]2C[C@@H]3CN(CCC(C)(C)C)C[C@@H]3C2)nn1 [Compound 61, N-[[(3aR,5s,6aS)-2-(3,3-Dimethylbutyl)-3,3a,4,5,6,6a-hexahydro-1H-cyclopenta[c]pyrrol-5-yl]methyl]-6-(2,4-dimethylpyrazol-3-yl)pyridazin-3-amine]	0.0356	3.12	–
Cc1nn(C)cc1-c1ccc(NCC2C[C@@H]3CN(CC4CC5C=CC4C5)C[C@@H]3C2)nn1 (stereo partly drawn) [Compound 62, N-[[(3aR,6aS)-2-(5-bicyclo[2.2.1]hept-2-enylmethyl)-3,3a,4,5,6,6a-hexahydro-1H-cyclopenta[c]pyrrol-5-yl]methyl]-6-(1,3-dimethylpyrazol-4-yl)pyridazin-3-amine]	0.0189	3.32	–
Cc1nn(C)cc1-c1ccc(NCC2C[C@@H]3CN(CC(C)C(C)(C)C)C[C@@H]3C2)nn1 (stereo partly drawn) [Compound 63, N-[[(3aR,6aS)-2-(2,3,3-trimethylbutyl)-3,3a,4,5,6,6a-hexahydro-1H-cyclopenta[c]pyrrol-5-yl]methyl]-6-(1,3-dimethylpyrazol-4-yl)pyridazin-3-amine]	0.108	3.46	–
Cc1cnn(C)c1-c1ccc(NC[C@H]2C[C@@H]3CN(CC4CC5C=CC4C5)C[C@@H]3C2)nn1 (stereo partly drawn) [Compound 64, N-[[(3aR,5s,6aS)-2-(5-bicyclo[2.2.1]hept-2-enylmethyl)-3,3a,4,5,6,6a-hexahydro-1H-cyclopenta[c]pyrrol-5-yl]methyl]-6-(2,4-dimethylpyrazol-3-yl)pyridazin-3-amine]	0.0079	3.74	–
Cc1cnn(C)c1-c1ccc(NC[C@H]2C[C@@H]3CN(CC(C)C(C)(C)C)C[C@@H]3C2)nn1 (stereo partly drawn) [Compound 65, N-[[(3aR,5s,6aS)-2-(2,3,3-trimethylbutyl)-3,3a,4,5,6,6a-hexahydro-1H-cyclopenta[c]pyrrol-5-yl]methyl]-6-(2,4-dimethylpyrazol-3-yl)pyridazin-3-amine]	0.253	4.16	–

— patent US12577234B2, “Antagonists of the muscarinic acetylcholine receptor M4” (Vanderbilt University, priority 2017, dated 2026)
